Literature values in patent publication US9763897B2, “Therapeutic astaxanthin and phospholipid composition and associated method” (U.S. NUTRACEUTICALS, LLC, priority 2010, dated 2017).
Each block holds one compound with its values, some of them ahead of it.

How the values were obtained:
lens epithelial cells = conditions: umol/L concentrations
[1] = 6 mg per day, eight weeks, healthy adults
[2] = test system: C-Reactive Protein (C-RP)
LDL cholesterol = conditions: 3.6 mg astaxanthin per day for two weeks
[3] = test system: LDL cholesterol oxidation; conditions: 4 mg astaxanthin per day for two weeks
[4] = test system: pro-oxidant activity of Vioxx (membrane lipid per-oxidation); conditions: in vitro

relative absorption of astaxanthin compared to the other two isomers (men, Coral-Hinostroza et al. (2004)): higher relative absorption
Compound: CCCCCCCCCCCCCCCC(=O)O[C@H]1CC(C)(C)C(/C=C/C(C)=C/C=C/C(C)=C/C=C/C=C(C)/C=C/C=C(C)/C=C/C2=C(C)C(=O)[C@@H](OC(=O)CCCCCCCCCCCCCCC)CC2(C)C)=C(C)C1=O [3R,3′R-astaxanthin dipalmitate, (3R,3′R-astaxanthin dipalmitate, reference compound]

negative effect of supplementation [1]: no negative effect
Compound: CC1=C(/C=C/C(C)=C/C=C/C(C)=C/C=C/C=C(C)/C=C/C=C(C)/C=C/C2=C(C)C(=O)[C@@H](O)CC2(C)C)C(C)(C)C[C@H](O)C1=O [Astaxanthin, 3,3′-dihydroxy-β-β-carotene-4,4′-dione]
effect on UVB induced lipid per-oxidative mediated cell damage (lens epithelial cells): suppresses UVB induced lipid per-oxidative mediated cell damage | decrease in C-reactive protein scores ([2]; 4 mg astaxanthin for eight weeks): 21% | drop in serum C-RP levels ([2]; human subjects with high risk C-RP levels, three months of treatment): 43% | protection of LDL cholesterol against induced in vitro oxidation (LDL cholesterol): protects LDL cholesterol against induced in vitro oxidation | reduction of LDL cholesterol oxidation [3]: 26% | effect on pro-oxidant activity of Vioxx [4]: negate the pro-oxidant activity of Vioxx

uptake relative to esterified astaxanthin (human plasma, versus esterified astaxanthin): 4-5 times
Compound: CC1=C(/C=C/C(C)=C/C=C/C(C)=C/C=C/C=C(C)/C=C/C=C(C)/C=C/C2=C(C)C(=O)[C@@H](O)CC2(C)C)C(C)(C)C[C@H](O)C1=O [free astaxanthin diol]
